According to US7910751B2, “Heterocyclidene acetamide derivative” (Mochida Pharmaceutical Co., Ltd., priority 2005, dated 2011):

Target: T1, human TRPV1 (Homo sapiens, UniProt Q8NER1)
T1 construct: expressed in transfected cells; host or cells: CHO-K1
Assay: Measurement of capsaicin-induced Ca influx in human TRPV1 transformed CHO cell line using FDSS-6000
Format: cell-based
Settings: concentration at which the capsaicin concentration-reaction curve is shifted two times to the right, human TRPV1 transformed CHO cells

T1 sequence (Q8NER1 whole entry): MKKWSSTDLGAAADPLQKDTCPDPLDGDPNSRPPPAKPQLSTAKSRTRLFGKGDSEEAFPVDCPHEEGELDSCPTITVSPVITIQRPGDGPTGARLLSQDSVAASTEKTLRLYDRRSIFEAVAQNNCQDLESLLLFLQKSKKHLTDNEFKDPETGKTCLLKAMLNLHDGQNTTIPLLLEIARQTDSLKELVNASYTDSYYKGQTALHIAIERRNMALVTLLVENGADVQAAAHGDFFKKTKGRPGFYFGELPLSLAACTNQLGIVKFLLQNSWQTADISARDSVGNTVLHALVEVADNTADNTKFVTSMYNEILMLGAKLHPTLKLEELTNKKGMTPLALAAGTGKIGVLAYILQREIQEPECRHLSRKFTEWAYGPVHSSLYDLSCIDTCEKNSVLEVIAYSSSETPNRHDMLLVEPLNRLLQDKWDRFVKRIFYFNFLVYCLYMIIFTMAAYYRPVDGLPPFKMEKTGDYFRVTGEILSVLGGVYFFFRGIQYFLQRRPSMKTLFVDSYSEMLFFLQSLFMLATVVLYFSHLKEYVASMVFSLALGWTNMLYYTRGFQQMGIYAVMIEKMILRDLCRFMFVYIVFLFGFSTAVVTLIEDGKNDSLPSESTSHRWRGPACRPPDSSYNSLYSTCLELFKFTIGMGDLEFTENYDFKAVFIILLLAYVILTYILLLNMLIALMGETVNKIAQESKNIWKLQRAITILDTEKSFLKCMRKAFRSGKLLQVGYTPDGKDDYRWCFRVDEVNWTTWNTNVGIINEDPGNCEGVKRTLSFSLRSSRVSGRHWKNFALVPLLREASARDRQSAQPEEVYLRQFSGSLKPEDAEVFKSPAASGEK

Structure (SMILES) | A2 VALUE
O=C(/C=C1\CCCOc2cc(C(F)(F)F)ccc21)NCc1ccc2c(c1)OCCO2 [Example 32, (E)-2-(8-trifluoromethyl-3,4-dihydrobenzo[b]oxepin-5(2H)-ylidene)-N-((2,3-dihydrobenzo[b][1,4]dioxin-6-yl)methyl)acetamide] | B (compounds having an A2 value of 100 nM or more are represented by B)
O=C(/C=C1\CCCOc2cc(C(F)(F)F)ccc21)Nc1ccc2c(c1)C(CO)CCC2 (stereo not drawn) [Example 179, (E)-2-(8-trifluoromethyl-3,4-dihydrobenzo[b]oxepin-5(2H)-ylidene)-N-(8-hydroxymethyl-5,6,7,8-tetrahydronaphthalen-2-yl)acetamide] | A (compounds of the present invention having an A2 value of less than 100 nM are represented by A)
O=C(/C=C1\CCCOc2cc(C(F)(F)F)ccc21)Nc1ccc(Cc2ccncc2)cc1 [Example 29, (E)-2-(8-trifluoromethyl-3,4-dihydrobenzo[b]oxepin-5(2H)-ylidene)-N-(4-((pyridin-4-yl)methyl)phenyl)acetamide] | B (compounds having an A2 value of 100 nM or more are represented by B)
CC1(C)C/C(=C\C(=O)Nc2cccc3c2CC(O)CN3)c2ccc(C(F)(F)F)cc2O1 (stereo not drawn) [Example 244, (E)-2-(7-trifluoromethyl-2,2-dimethylchroman-4-ylidene)-N-(3-hydroxy-1,2,3,4-tetrahydroquinolin-5-yl)acetamide] | A (compounds of the present invention having an A2 value of less than 100 nM are represented by A)
COCCC(=O)N1CC/C(=C\C(=O)Nc2ccc3cccnc3c2)c2ccc(C(F)(F)F)cc21 [Example 100, (E)-2-(7-trifluoromethyl-2,3-dihydro-1-(3-methoxypropanoyl)quinolin-4(1H)-ylidene)-N-(quinolin-7-yl)acetamide] | A (compounds of the present invention having an A2 value of less than 100 nM are represented by A)
O=C(/C=C1\CCCOc2cc(C(F)(F)F)ccc21)Nc1ccc2c(c1)N(CCO)CCO2 [Example 233] | A (compounds of the present invention having an A2 value of less than 100 nM are represented by A)
O=C(/C=C1\CCCOc2cc(C(F)(F)F)ccc21)Nc1ccc2c(c1)C(=O)CCC2 [Example 23, (E)-2-(8-trifluoromethyl-3,4-dihydrobenzo[b]oxepin-5(2H)-ylidene)-N-(1,2,3,4-tetrahydro-1-oxonaphthalen-7-yl)acetamide] | A (compounds of the present invention having an A2 value of less than 100 nM are represented by A)
O=C(/C=C1\CCOc2cc(C(F)(F)F)ccc21)Nc1cccc2c1CCCC2 [Example 202, (E)-2-(7-trifluoromethyl-chroman-4-ylidene)-N-(5,6,7,8-tetrahydronaphthalen-1-yl)acetamide] | A (compounds of the present invention having an A2 value of less than 100 nM are represented by A)
O=C(/C=C1\CCCOc2cc(C(F)(F)F)ccc21)Nc1ccc2c(c1)C(O)CC2 (stereo not drawn) [Example 175, (E)-2-(8-trifluoromethyl-3,4-dihydrobenzo[b]oxepin-5(2H)-ylidene)-N-(indan-1-ol-6-yl)acetamide] | A (compounds of the present invention having an A2 value of less than 100 nM are represented by A)
O=C(/C=C1\CCN(C(=O)C2CCC2)c2cc(C(F)(F)F)ccc21)Nc1cccc2c1CC(O)CC2 (stereo not drawn) [Example 84, (E)-2-(1-cyclobutanecarbonyl-7-trifluoromethyl-2,3-dihydroquinolin-4(1H)-ylidene)-N-(7-hydroxy-5,6,7,8-tetrahydronaphthalen-1-yl)acetamide] | A (compounds of the present invention having an A2 value of less than 100 nM are represented by A)
O=C(/C=C1\CCCNc2cc(C(F)(F)F)ccc21)Nc1ccc2cccnc2c1 [Example 191, (E)-2-(8-trifluoromethyl-1,2,3,4-tetrahydro-5H-benzo[b]azepin-5-ylidene)-N-(quinolin-7-yl)acetamide] | A (compounds of the present invention having an A2 value of less than 100 nM are represented by A)
O=C(/C=C1\CCCOc2cc(C(F)(F)F)c(F)cc21)Nc1cccc2c1CC(O)CC2 (stereo not drawn) [Example 248, (E)-2-(7-fluoro-8-trifluoromethyl-3,4-dihydrobenzo[b]oxepin-5-(2H)-ylidene)-N-(7-hydroxy-5,6,7,8-tetrahydronaphthalen-1-yl)acetamide] | A (compounds of the present invention having an A2 value of less than 100 nM are represented by A)
CC(C)c1ccc2c(c1)OCC/C2=C\C(=O)Nc1cccc2c1CC(O)CC2 (stereo not drawn) [Example 206, (E)-2-(7-isopropyl-chroman-4-ylidene)-N-(7-hydroxy-5,6,7,8-tetrahydronaphthalen-1-yl)acetamide] | A (compounds of the present invention having an A2 value of less than 100 nM are represented by A)
O=C(/C=C1\CCCOc2cc(C(F)(F)F)ccc21)Nc1n[nH]c2ccccc12 [Example 42, (E)-2-(8-trifluoromethyl-3,4-dihydrobenzo[b]oxepin-5(2H)-ylidene)-N-(1H-indazol-3-yl)acetamide] | B (compounds having an A2 value of 100 nM or more are represented by B)
Cc1cc(NC(=O)/C=C2\CCCOc3cc(C(F)(F)F)ccc32)n(C(C)(C)C)n1 [Example 46, (E)-N-(1-tert-butyl-3-methyl-1H-pyrazolo-5-yl)-2-(8-trifluoromethyl-3,4-dihydrobenzo[b]oxepin-5(2H)-ylidene)acetamide] | B (compounds having an A2 value of 100 nM or more are represented by B)
CCC(F)(F)C(=O)N1CC/C(=C\C(=O)Nc2cccc3c2CC(O)C(=O)N3)c2ccc(C(F)(F)F)cc21 (stereo not drawn) [Example 185, (E)-2-(1-(2,2-difluorobutanoyl)-7-trifluoromethyl-2,3-dihydroquinolin-4(1H)-ylidene)-N-(3-hydroxy-2-oxo-1,2,3,4-tetrahydroquinolin-5-yl)acetamide] | A (compounds of the present invention having an A2 value of less than 100 nM are represented by A)
O=C(/C=C1\CCN(C(=O)C2CC(F)(F)C2)c2cc(C(F)(F)F)ccc21)Nc1cccc2c1CC(O)CC2 (stereo not drawn) [Example 118, (E)-2-(1-(3,3-difluorocyclobutanecarbonyl)-7-trifluoromethyl-2,3-dihydroquinolin-4(1H)-ylidene)-N-(7-hydroxy-5,6,7,8-tetrahydronaphthalen-1-yl)acetamide] | A (compounds of the present invention having an A2 value of less than 100 nM are represented by A)
O=C(/C=C1\CCOc2ccccc21)Nc1ccc2c(c1)OCCO2 [Example 1, (E)-2-(chroman-4-ylidene)-N-(2,3-dihydrobenzo[b][1,4]dioxin-6-yl)acetamide] | B (compounds having an A2 value of 100 nM or more are represented by B)
O=C(/C=C1\CCOc2cc(C(F)(F)F)ccc21)Nc1cccc2cnccc12 [Example 7, (E)-2-(7-trifluoromethyl-chroman-4-ylidene)-N-(isoquinolin-5-yl)acetamide] | A (compounds of the present invention having an A2 value of less than 100 nM are represented by A)
COC(=O)CCC(=O)N1CC/C(=C\C(=O)Nc2ccc3cccnc3c2)c2ccc(C(F)(F)F)cc21 [Example 101, (E)-2-(7-trifluoromethyl-2,3-dihydro-1-(3-(carbomethoxy)propanoyl)quinolin-4(1H)-ylidene)-N-(quinolin-7-yl)acetamide] | A (compounds of the present invention having an A2 value of less than 100 nM are represented by A)
Cc1sc2cnccc2c1NC(=O)/C=C1\CCOc2cc(C(F)(F)F)ccc21 [Example 204, (E)-2-(7-trifluoromethyl-chroman-4-ylidene)-N-(2-methylthieno[2,3-c]pyridin-3-yl)acetamide] | A (compounds of the present invention having an A2 value of less than 100 nM are represented by A)
CN1CCC/C(=C\C(=O)Nc2ccc3cccnc3c2)c2ccc(C(F)(F)F)cc21 [Example 196, (E)-2-(1-methyl-8-trifluoromethyl-1,2,3,4-tetrahydro-5H-benzo[b]azepin-5-ylidene)-N-(quinolin-7-yl)acetamide] | A (compounds of the present invention having an A2 value of less than 100 nM are represented by A)
O=C(/C=C1\CCCOc2cc(C(F)(F)F)ccc21)NC(c1ccccc1)c1ccccn1 (stereo not drawn) [Example 31, (E)-2-(8-trifluoromethyl-3,4-dihydrobenzo[b]oxepin-5(2H)-ylidene)-N-(phenyl(pyridin-2-yl)methyl)acetamide] | B (compounds having an A2 value of 100 nM or more are represented by B)
O=C(/C=C1\CCCOc2cc(C(F)(F)F)ccc21)NCc1ccc2c(c1)CCO2 [Example 35, (E)-2-(8-trifluoromethyl-3,4-dihydrobenzo[b]oxepin-5(2H)-ylidene)-N-((2,3-dihydrobenzofuran-5-yl)methyl)acetamide] | B (compounds having an A2 value of 100 nM or more are represented by B)
O=C(/C=C1\CCCOc2cc(C(F)(F)F)ccc21)Nc1ccc(S(=O)(=O)N2CCOCC2)cc1 [Example 26, (E)-2-(8-trifluoromethyl-3,4-dihydrobenzo[b]oxepin-5(2H)-ylidene)-N-(4-(4-morpholinylsulfonyl)phenyl)acetamide] | B (compounds having an A2 value of 100 nM or more are represented by B)
CCC(F)(F)C(=O)N1CC/C(=C\C(=O)Nc2cccc3c2CC(O)CC3)c2ccc(C(F)(F)F)cc21 (stereo not drawn) [Example 95, (E)-2-(1-(2,2-difluorobutanoyl)-7-trifluoromethyl-2,3-dihydroquinolin-4(1H)-ylidene)-N-(7-hydroxy-5,6,7,8-tetrahydronaphthalen-1-yl)acetamide] | A (compounds of the present invention having an A2 value of less than 100 nM are represented by A)
O=C(/C=C1\CCCOc2cc(C(F)(F)F)ccc21)Nc1ccc(C(F)(F)F)cc1 [Example 15, (E)-2-(8-trifluoromethyl-3,4-dihydrobenzo[b]oxepin-5(2H)-ylidene)-N-(4-trifluoromethylphenyl)acetamide] | B (compounds having an A2 value of 100 nM or more are represented by B)
